This assay concerns the target PDE10 (UniProt Q9Y233). The assay is described as follows: PDE10 enzyme inhibition, IMAP TR-FRET assay (MPDE10A7 Enzyme Activity and Inhibition). In kind it is biochemical. An outline of the steps: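 IMAP TR-FRET read-out of PDE10 hydrolysis of fluorescein-cAMP or -cGMP (60 min, room temperature), after a 30 min compound-enzyme preincubation. Enzyme source was PDE10A or tissue homogenate. Averaged IC50s are reported as five range classes.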
On the technique in general: TR-FRET usually uses a lanthanide donor and a delayed reading to cut background.

[1] abbreviates: PDE10 enzyme inhibition, chiral compounds separated from racemic mixtures, read-out: IC50.
The mark [2] stands for this setting: IC50 class against PDE10, read-out: IC50.
Setting [3] is: PDE10 enzyme inhibition, average IC50 data for each compound, read-out: Average IC50.

Among the data in US20120277209A1, “PYRAZINE COMPOUNDS AS PHOSPHODIESTERASE 10 INHIBITORS” (Amgen Inc., priority 2009, published 2012) are IC50 values, retold here.

Read-outs that look alike come from different tables or passages of the source.

What is called IC50 is the concentration needed to halve the response being measured.

On to `O=C(c1ccc(Oc2nccnc2[C@@H]2CCC[C@H](O)C2)cc1)c1nc2ccccc2[nH]1` [Example 269, (1H-benzo[d]imidazol-2-yl)(4-(3-((1R,3S)-3-hydroxycyclohexyl)pyrazin-2-yloxy)phenyl) methanone], for which the IC50 under setting [1] was less than 25 nM.
In the case of `OC[C@@H]1CCN(c2nccnc2Oc2ccc(Nc3nc4ccccc4s3)cc2)C1` [Example 85, (R)-(1-(3-(4-(benzo[d]thiazol-2-ylamino)phenoxy)pyrazin-2-yl)pyrrolidin-3-yl)methanol], under setting [2], the IC50 was less than 25 nM.
For the molecule `O=C1CCCC(c2nccnc2Oc2ccc(Nc3nc4ccccc4s3)cc2)C1` (stereo not drawn), the IC50 under setting [3] came out at 1.21 nM.
Same read-out and setting: in the case of `COCC(=O)N1CCC(c2nccnc2Oc2ccc(Nc3nc4ccccc4s3)cc2)CC1` [drawing 946] it was 0.024 nM; in that of `CC(C)(C)OC(=O)N1CC=C(c2nccnc2Oc2ccc(Nc3nc4ccccc4s3)c(F)c2)CC1` [drawing 983], 70 nM; in that of `C[C@@H](F)C(=O)N1CCC(c2nccnc2Oc2ccc(Nc3nc4ccccc4s3)cc2)CC1` [drawing 978], 0.031 nM.
In the case of `COc1cnccc1-c1nccnc1Oc1ccc(Nc2nc3ccccc3s2)cc1` [drawing 961], the IC50 under setting [3] worked out at 1.91 nM.
As to `O=C(c1ccc(Oc2nccnc2-c2cccc3ncccc23)cc1)c1nc2ccccc2[nH]1` [Example 130, (1H-benzo[d]imidazol-2-yl)(4-(3-(quinolin-5-yl)pyrazin-2-yloxy)phenyl)methanone], the IC50 under setting [2] was in the range of 25 to 100 nM.
Same read-out and setting: in the case of `OC1CCN(c2nccnc2Oc2ccc(Nc3nc4ccccc4s3)cc2)CC1` [Example 67, 1-(3-(4-(benzo[d]thiazol-2-ylamino)phenoxy)pyrazin-2-yl)piperidin-4-ol] it was less than 25 nM.
As to `COCCOc1nccnc1Oc1ccc(C(=O)c2nc3ccccc3[nH]2)cc1` [drawing 848], the half-inhibitory concentration (IC50) under setting [3] was 29.1 nM.
For the molecule `CCOC(=O)[C@H]1CCCN(c2nccnc2Oc2ccc(C(=O)c3nc4ccccc4[nH]3)cc2)C1` [Example 264, (S)-ethyl 1-(3-(4-(1H-benzo[d]imidazole-2-carbonyl)phenoxy)pyrazin-2-yl)piperidine-3-carboxylate], under setting [1], the half-maximal inhibitory concentration (IC50) was less than 25 nM.
For `O=C(c1ccc(Oc2nccnc2[C@H]2CCC[C@@H](O)C2)cc1)c1nc2ccccc2[nH]1` [Example 270, (1H-benzo[d]imidazol-2-yl)(4-(3-((1S,3R)-3-hydroxycyclohexyl)pyrazin-2-yloxy)phenyl) methanone], under setting [1], the half-inhibitory concentration (IC50) was less than 25 nM.
As for `O=C1CCCC(c2nccnc2Oc2ccc(C(=O)c3nc4ccccc4[nH]3)cc2)C1` (stereo not drawn), the half-inhibitory concentration (IC50) under setting [3] was found to be 1.33 nM.
With `O=C(c1ccc(Oc2nccnc2C2(F)CCOCC2)cc1)c1nc2ccccc2[nH]1` [drawing 924], the 50% inhibitory concentration (IC50) under setting [3] worked out at 1.83 nM.
Turning to `O=C(c1ccc(Oc2nccnc2C(=O)NCCc2ccccc2)cc1)c1nc2ccccc2[nH]1` [Example 254, 3-(4-(1H-benzo[d]imidazole-2-carbonyl)phenoxy)-N-phenethylpyrazine-2-carboxamide], under setting [2], the concentration for half-maximal inhibition (IC50) is less than 25 nM.
In the case of `Fc1ccc2sc(Nc3ccc(Oc4nccnc4C4CCOCC4)cc3)nc2c1` [drawing 881], under setting [3], the concentration for half-maximal inhibition (IC50) came to 11.8 nM.
Same read-out and setting: as for `O=C(c1ccc(Oc2nccnc2Cl)cc1)c1nc2cccc(F)c2[nH]1`, the figure is 406 nM.
In the case of `CN(C)CCOc1nccnc1Oc1ccc(C(=O)c2nc3ccccc3[nH]2)cc1` [Example 174, (1H-benzo[d]imidazol-2-yl)(4-(3-(2-(dimethylamino)ethoxy)pyrazin-2-yloxy)phenyl)methanone], the IC50 under setting [2] was 100 to 250 nM.
Regarding `CN(C)CC(=O)N1CCC(c2nccnc2Oc2ccc(C(=O)c3nc4ccccc4[nH]3)cc2)CC1` [drawing 995], the IC50 under setting [3] was found to be 1.43 nM.
Same read-out and setting: as for `O=C(c1ccc(Oc2nccnc2-c2cccc3ncccc23)cc1)c1nc2ccccc2[nH]1` [drawing 803], the figure is 3.18 nM.
As for `O=C(c1ccc(Oc2nccnc2C2CCCOC2)cc1)c1nc2ccccc2[nH]1` (stereo not drawn) [Example 186, 1H-benzimidazol-2-yl(4-((3-(tetrahydro-2H-pyran-3-yl)-2-pyrazinyl)oxy)phenyl)methanone], the IC50 under setting [2] is less than 25 nM.
Turning to `COc1ncc(F)cc1-c1nccnc1Oc1ccc(C(=O)c2nc3ccccc3[nH]2)cc1` [Example 116, (1H-benzo[d]imidazol-2-yl)(4-(3-(5-fluoro-2-methoxypyridin-3-yl)pyrazin-2-yloxy)phenyl)methanone], the IC50 under setting [2] is less than 25 nM.
Same read-out and setting: in the case of `CC(=O)N1CC=C(c2nccnc2Oc2ccc(C(=O)c3nc4ccccc4[nH]3)cc2)CC1` [Example 133, 1-(4-(3-(4-(1H-benzo[d]imidazole-2-carbonyl)phenoxy)pyrazin-2-yl)-5,6-dihydropyridin-1(2H)-yl)ethanone] it was less than 25 nM.
`O=C(c1ccc(Oc2nccnc2-c2ccc[nH]c2=O)cc1)c1nc2ccccc2[nH]1` [Example 106, 3-(3-(4-(1H-BENZO[D]IMIDAZOLE-2-CARBONYL)PHENOXY)PYRAZIN-2-YL)PYRIDIN-2(1H)-ONE]: under setting [2], the IC50 was less than 25 nM.
Consider `N#CC1CN(c2nccnc2Oc2ccc(Nc3nc4ccccc4s3)cc2)C1` [drawing 776], for which the IC50 under setting [3] amounted to 6.75 nM.
For the molecule `N#CC1CCN(c2nccnc2Oc2ccc(Nc3nc4ccccc4s3)cc2)CC1` [Example 70, 1-(3-(4-(benzo[d]thiazol-2-ylamino)phenoxy)pyrazin-2-yl)piperidine-4-carbonitrile], the IC50 under setting [2] was less than 25 nM.
As for `COC(=O)C1CN(c2nccnc2Oc2ccc(Nc3nc4ccccc4s3)cc2)C1` [drawing 722], the IC50 under setting [3] was determined as 8.4 nM.
Take `O[C@@H]1CCC[C@H](c2nccnc2Oc2ccc(Nc3nc4ccccc4s3)cc2)C1` (stereo in doubt): under setting [3], the IC50 stood at 2.32 nM.
Same read-out and setting: in the case of `N#C[C@@H]1CCN(c2nccnc2Oc2ccc(C(=O)c3nc4ccccc4[nH]3)cc2)C1` (stereo in doubt) it was 1.32 nM.
Turning to `CC1CN(c2nccnc2Oc2ccc(Nc3nc4ccccc4s3)cc2)CC(C)O1` (stereo not drawn) [Example 74, N-(4-(3-(2,6-dimethylmorph-olino)pyrazin-2-yloxy)phenyl)-benzo[d]thiazol-2-amine], under setting [2], the 50% inhibitory concentration (IC50) fell in the range of 25 to 100 nM.
Take `O=C(c1ccc(Oc2nccnc2C2CCOCC2)cc1)c1nc2ncccc2[nH]1` [drawing 890]: the IC50 under setting [3] is 7.72 nM.
Regarding `C[C@]1(O)CC[C@@H](c2nccnc2Oc2ccc(C(=O)c3nc4ccccc4[nH]3)cc2)CC1` [drawing 923], the IC50 under setting [3] was found to be 1.42 nM.
For the molecule `COc1cncc(-c2nccnc2Oc2ccc(C(=O)c3nc4ccccc4[nH]3)cc2)c1` [drawing 917], the IC50 under setting [3] came to 5.42 nM.
For `OC1C=C(c2nccnc2Oc2ccc(Nc3nc4ccccc4s3)c(F)c2)CCC1` (racemic) [Example 137, (rac)-3-(3-(4-(benzo[d]thiazol-2-ylamino)-3-fluorophenoxy)pyrazin-2-yl)cyclohex-2-enol], the IC50 under setting [2] is less than 25 nM.
Take `c1ccc2sc(Nc3ccc(Oc4nccnc4-c4cncnc4)cc3)nc2c1` [Example 143, N-(4-(3-(pyrimidin-5-yl)pyrazin-2-yloxy)phenyl)benzo[d]thiazol-2-amine]: under setting [2], the half-inhibitory concentration (IC50) was less than 25 nM.
Turning to `O=C(c1ccc(Oc2nccnc2C2=CCOCC2)cc1)c1nc2ccccc2[nH]1`, the IC50 under setting [3] is 3.36 nM.
As for `Cc1ccc(-c2nccnc2Oc2ccc(Nc3nc4ccccc4s3)cc2)cn1` [Example 140, N-(4-(3-(6-methylpyridin-3-yl)pyrazin-2-yloxy)phenyl)benzo[d]thiazol-2-amine], the IC50 under setting [2] was less than 25 nM.
In the case of `COc1ncccc1-c1nccnc1Oc1ccc([C@H](O)c2nc3ccccc3[nH]2)cc1` (stereo in doubt), under setting [3], the IC50 worked out at 14.9 nM.
The same measure, in the same setting: in the case of `COc1ccc(-c2nccnc2Oc2ccc(C(=O)c3nc4ccccc4[nH]3)cc2)cn1` [drawing 876] it was 14.2 nM.
Consider `CC(C)N1CCN(c2nccnc2Oc2ccc(Nc3nc4ccccc4s3)cc2)CC1=O` [Example 91, 4-(3-(4-(benzo[d]thiazol-2-yl-amino)phenoxy)pyrazin-2-yl)-1-isopropylpiperazin-2-one], for which, under setting [2], the half-maximal inhibitory concentration (IC50) lay within 25 to 100 nM.
In the case of `C[C@H](F)C(=O)N1CCC(c2nccnc2Oc2ccc(Nc3nc4ccccc4s3)cc2)CC1` (stereo in doubt), the IC50 under setting [3] is 0.178 nM.
For the molecule `O=C(c1ccc(Oc2nccnc2OCCN2CCOCC2)cc1)c1nc2ccccc2[nH]1` [Example 172, (1H-benzo[d]imidazol-2-yl)(4-(3-(2-morpholinoethoxy)pyrazin-2-yloxy)phenyl)methanone], the IC50 under setting [2] lay within 100 to 250 nM.
Still for that read-out and setting: as for `O=C(c1ccc(Oc2nccnc2-c2ccnc(C(F)(F)F)c2)cc1)c1nc2ccccc2[nH]1` [Example 104, (1H-BENZO[D]IMIDAZOL-2-YL)(4-(3-(2-(TRIFLUOROMETHYL)PYRIDIN-4-YL)PYRAZIN-2-YLOXY)PHENYL)METHANONE], the figure is less than 25 nM.
As for `c1ccc2sc(Nc3ccc(Oc4nccnc4C4CCCC4)cc3)nc2c1` [drawing 948], the IC50 under setting [3] worked out at 4.96 nM.
`COc1ncc(-c2nccnc2Oc2ccc(Nc3nc4ccccc4s3)cc2)cn1` [drawing 783]: the IC50 under setting [3] is 23.2 nM.
Same read-out and setting: as for `OCCN1CCN(c2nccnc2Oc2ccc(Nc3nc4ccccc4s3)cc2)CC1` [drawing 720], the figure is 8.44 nM.
Turning to `COC(=O)[C@H]1CCN(c2nccnc2Oc2ccc(C(=O)c3nc4ccccc4[nH]3)cc2)C1` [Example 265, (S)-methyl 1-(3-(4-(1H-benzo[d]imidazole-2-carbonyl)phenoxy)pyrazin-2-yl)pyrrolidine-3-carboxylate], under setting [1], the IC50 is less than 25 nM.
Turning to `O=C(c1ccc(Oc2nccnc2C(=O)NCCc2ccccn2)cc1)c1nc2ccccc2[nH]1` [drawing 795], the IC50 under setting [3] was found to be 8.08 nM.
As for `CC(=O)N1CCC(c2nccnc2Oc2ccc(Nc3nc4ccccc4s3)nc2)CC1` [Example 249, 1-(4-(3-(6-(benzo[d]thiazol-2-ylamino)pyridin-3-yloxy)pyrazin-2-yl)piperidin-1-yl)ethanone], the IC50 under setting [2] is 250 to 1000 nM.
On the same count and under the same terms, in the case of `Fc1ccc2nc(Nc3ccc(Oc4nccnc4Cl)cc3)sc2c1` [Example 62, N-(4-(3-CHLOROPYRAZIN-2-YLOXY)PHENYL)-6-FLUOROBENZO[D]THIAZOL-2-AMINE] it was 1000 to 5000 nM.
On to `COc1ncccc1-c1nccnc1Oc1ccc(C(=O)c2nc3ccccc3n2C)cc1` [drawing 896], for which the concentration for half-maximal inhibition (IC50) under setting [3] came to 0.594 nM.
